Laboratory results reported in patent US20210353579A1, “HIGH PENETRATION COMPOSITIONS AND USES THEREOF” (Techfields Pharma Co., Ltd., priority 2006, published 2021).

Assays:
[1] = system: Human breast cancer cells (BCAP-37); assay: Human breast cancer xenograft in nude mice, topical; details: day 42, 30 μl of 5% (1.5 mg) topically every 8 hours from day 14; for Tumor size: control 800 ± 100
Method: Human breast cancer cells (BCAP-37, 2-3 mm^3 of tumor tissue was used in each mouse) are subcutaneously xenografted into the front leg of nude mice (BALB, 12 groups, 7 mice each group). […] Then 30 μl of 5% (equal to 1.5 mg of the HPPs) diethylaminoethyl acetylsalicylate.acetylsalicylic acid salt (P-1, in acetone); 1-piperidinepropyl 2[(2,6-dichlorophenyl)amino]benzene acetate.AcOH (P-2, in water), 1-pyrrolidinepropyl 2-(3-benzoylphenyl) propionate.AcOH (P-3, in water), 4-piperidinemethyl 2-(3-phenoxyphenyl)propionate.AcOH (P-4, in water), 3-piperidinemethyl 2-(ρ-isobutylphenyl) propionate.AcOH (P-5, in water), diethylaminoethyl 1-(p-chlorobenzoyl)-5-methoxy-2-methylindole 3-acetate.AcOH (P-11, in water), 2-(4-morpholinyl)ethyl (Z)-5-fluoro-2-methyl-1-[(4-methylsulfinyl) phenylmethylene]-1H-indene-3-acetate.AcOH (P-12, in water), diethylaminoethyl

[2] = system: Human colon cancer cells (LS174J); assay: Human colon cancer xenograft in nude mice, topical; details: day 30, about 30 μl of 5% solution (1.5 mg) topically applied
Text: Human colon cancer cells (LS174J, 2-3 mm^3 of tumor tissue was used in each mouse) are subcutaneously xenografted into the front leg of nude mice (BALB).

[3] = Plasma levels after transdermal administration to hairless mice; assay type: in vivo; details: mouse, in vivo
Method: Tested compounds (20% solution or suspension in 1 mL isopropanol) are administered transdermally to the skin of intact hairless mice. The plasma levels of the parent compounds are determined by HPLC.

[4] = system: mice; assay: Analgesic activity, acetic acid writhing; assay type: in vivo
Method: The prodrug compounds are administered either transdermally or orally. The parent compounds are administered orally. The number of writhing that occurred when mice are administered the acetic acid solution are counted, and the rate of inhibition based on the control group which was not pretreated with any test compounds is calculated. […] The A group is the control group.

[5] = system: rats; assay: Antipyretic activity, E. coli suspension as pyrogen; assay type: in vivo; details: in °C (unit assumed)
Method: Rats are administered with sterilized E. coli suspension as a pyrogen. Each group of rats are administered with a prodrug compounds or parent compounds at a dosage specified below. The prodrug compounds are administered either orally or transdermally. The parent compounds are administered orally.

[6] = system: human skin tissue; details: pH 7.4
[7] = system: rat; details: rats;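 note: acute toxicity in rats expressed as LD50, determined for both prodrugs and their parent compounds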
Method: The acute toxicity of the prodrug compounds and parent compounds are measured by LD50 of rat.

[8] = system: Chinese white rabbits; assay: Malassezia-induced lesions similar to psoriasis; assay type: in vivo, rabbit; details: 5% aqueous solution twice per day, 10 days after application
Text: Heavy suspensions of Malassezia [Rosenberg, E. W., et al., Mycopathologia, 72, 147-154 (1980)] were applied to the shaved skin on the backs of the Chinese white rabbits (n=4×6) twice (at 7 am and 7 pm) per day for 2 weeks, lesions similar to psoriasis resulted.

[9] = 100 mg/kg transdermally, 30 min before acetic acid
[10] = 100 mg/kg transdermally, 60 minutes before acetic acid
[11] = 50 mg/kg transdermally, 60 minutes before acetic acid

Compound | Tumor size [1] [mm^3] | Tumor size [2] [mm^3] | Peak plasma concentration of parent compound after prodrug compound [3] [mg/L] | t, time to peak plasma level of parent compound after prodrug compound [3] [min] | % (rate of writhing inhibition) [4, 9] [%] | No. of Writhing [4, 9] | body temperature, t = 0 min ([5]; 100 mg/kg transdermally) | body temperature, t = 90 min ([5]; 100 mg/kg transdermally) | body temperature, t = 180 min ([5]; 100 mg/kg transdermally) | body temperature, t = 270 min ([5]; 100 mg/kg transdermally) | In vitro penetration rate (apparent flux), prodrug compounds [6] [μg/cm^2/h] | LD50 of HPP [7] [mg/kg] | other results
CC(=O)O.CC(C(=O)OCC1CCNCC1)c1cccc(Oc2ccccc2)c1 (stereo not drawn) [P-4, 4-piperidinemethyl 2-(3-phenoxyphenyl)propionate.AcOH] | 180 ± 50 | 480 ± 120 | – | – | – | – | – | – | – | – | – | – | –
CC(=O)O.CCN(CC)CCOC(=O)Cc1ccccc1Oc1ccc(Cl)cc1Cl [diethylaminoethyl 2-(2,4-dichlorophenoxy)benzeneacetate.AcOH] | 280 ± 50 | – | 20 | 50 | 59 | 14.2 | 37.22 ± 0.06 | 36.65 ± 0.06 | 36.58 ± 0.08 | 36.56 ± 0.07 | 1500 | 200 | –
CC(=O)O.CCN(CC)CCOC(=O)C(C)c1ccc2c(c1)C(=O)Cc1cc(C)ccc1O2 (stereo not drawn) [diethylaminoethyl 2-(8-methyl-10, 11-dihydro-11-oxodibenz(b,f)oxepin-2-yl)propionate.AcOH] | 250 ± 50 | – | 2000 | 50 | 61 | 13.8 | 37.26 ± 0.07 | 36.80 ± 0.06 | 36.70 ± 0.05 | 36.57 ± 0.08 | 4100 | – | –
CC(=O)O.CC(C(=O)OCCCN1CCCC1)c1cccc(C(=O)c2ccccc2)c1 (stereo not drawn) [P-3, 1-pyrrolidinepropyl 2-(3-benzoylphenyl) propionate.AcOH] | 200 ± 50 | 500 ± 150 | – | – | – | – | – | – | – | – | – | – | –
CC(=O)O.CCN(CC)CCOC(=O)Cc1cn(-c2ccccc2)nc1-c1ccc(Cl)cc1 [diethylaminoethyl 3-(4-chlorophenyl)-1-phenyl-1H-pyrazole-4-acetate.AcOH] | – | – | 20 | 50 | 57 | 15.2 | 37.22 ± 0.07 | 36.82 ± 0.06 | 36.80 ± 0.05 | 36.77 ± 0.08 | – | 1200 | lesions similar to psoriasis [8]: the lesions were resolved
CC(=O)O.CCN(CC)CCOC(=O)C(C)c1ccc2c(c1)CC(=O)c1ccccc1S2 (stereo not drawn) [diethylaminoethyl 2-(10, 11-dihydro-10-oxodibenzo(b,f)thiepin-2-yl)propionate.AcOH] | – | 480 ± 180 | 2000 | 50 | 59 | 14.2 | 37.25 ± 0.06 | 36.71 ± 0.05 | 36.65 ± 0.08 | 36.64 ± 0.07 | 3700 | – | –
CC(=O)O.CCN(CC)CCOC(=O)c1ccccc1Nc1c(Cl)ccc(C)c1Cl [diethylaminoethyl 2-[(2,6-dichloro-3-methylphenyl)amino]benzoate.AcOH] | – | 490 ± 150 | 20 | 50 | – | – | 37.28 ± 0.06 | 36.68 ± 0.05 | 36.62 ± 0.08 | 36.58 ± 0.07 | 2000 | 1000 | % (rate of writhing inhibition) [4, 10]: 59%; No. of Writhing [4, 10]: 14.2
CN(C)CCCC(=O)OC1=C(C(=O)Nc2ccccn2)N(C)S(=O)(=O)c2ccccc21.Cl [4-N,N-dimethylaminobutyryloxy-2-methyl-N-2-pyridinyl-2H,1,2-benzothiazine-3-carboxamide 1,1-dioxide.HCl] | 390 ± 50 | – | 20 | – | – | – | – | – | – | – | 1700 | 550 | % (rate of writhing inhibition) [4, 11]: 55%; No. of Writhing [4, 11]: 15.6; body temperature, t = 0 min ([5]; 25 mg/kg transdermally): 37.57 ± 0.06; body temperature, t = 90 min ([5]; 25 mg/kg transdermally): 36.51 ± 0.05; body temperature, t = 180 min ([5]; 25 mg/kg transdermally): 36.40 ± 0.06; body temperature, t = 270 min ([5]; 25 mg/kg transdermally): 36.45 ± 0.07
N-(2-thiazolyl)-4-N,N-dimethylaminobutyryloxy-2-methyl-2H,1,2-benzothiazine-3-carboxamide 1,1-dioxide.HCl | – | 690 ± 250 | 20 | 50 | – | – | – | – | – | – | 1500 | 670 | % (rate of writhing inhibition) [4, 11]: 55%; No. of Writhing [4, 11]: 15.7; body temperature, t = 0 min ([5]; 25 mg/kg transdermally): 37.50 ± 0.07; body temperature, t = 90 min ([5]; 25 mg/kg transdermally): 36.61 ± 0.04; body temperature, t = 180 min ([5]; 25 mg/kg transdermally): 36.50 ± 0.07; body temperature, t = 270 min ([5]; 25 mg/kg transdermally): 36.60 ± 0.05
CC(=O)O.CCN(CC)CCOC(=O)c1ccccc1Nc1cccc(C)c1C [diethylaminoethyl 2-[(2,3-dimethylphenyl)amino]benzoate.AcOH] | – | 650 ± 250 | 20 | 50 | – | – | 37.35 ± 0.06 | 36.71 ± 0.05 | 36.60 ± 0.08 | 36.59 ± 0.07 | 2100 | 900 | % (rate of writhing inhibition) [4, 10]: 55%; No. of Writhing [4, 10]: 15.6
CC(=O)O.Nc1c(CC(=O)OCCN2CCOCC2)cccc1C(=O)c1ccccc1 [P-16, 2-(4-morpholinyl)ethyl 2-amino-3-benzoylbenzeneacetate.AcOH] | – | 550 ± 150 | – | – | – | – | – | – | – | – | – | – | –
CC(=O)O.O=C(Cc1ccccc1Nc1c(Cl)cccc1Cl)OCCCN1CCCCC1 [P-2, 1-piperidinepropyl 2[(2,6-dichlorophenyl)amino]benzene acetate.AcOH] | 180 ± 50 | 480 ± 180 | – | – | – | – | – | – | – | – | – | – | Mouse weight ([1]; control 22 ± 2): 22 ± 2 g; Mouse weight [2]: 22 ± 2 g
